Measured values from patent publication US8586322B2, “Sandwich assay for immunosuppressant drugs” (Siemens Healthcare Diagnostics, Inc, priority 2012, dated 2013).

Tests used:
[1] = system: monoclonal antibody 14H04; experiment: ACMIA cross-reactivity / binding of tacrolimus derivatives to monoclonal antibody 14H04; set-up: species or system mouse; conditions: ACMIA format
Method: The monoclonal antibody for region 14 may be identified by a screening method as follows: The binding region of an antibody clone was identified based on its binding properties to different tacrolimus derivatives such as metabolites and immunogens.
Measurements of tacrolimus derivatives by the ACMIA assay format were carried out according to the following procedure. Metabolites were obtained from Isotechnika Pharma Inc (Alberta, Canada) and Dr. Christistians Laboratory at University of Colorado in Denver, Colo. The tacrolimus derivative compounds such as immunogens were obtained from Siemens AG (Glasgow, Del.). The metabolite and immunogen cross-reactivity was measured using the ACMIA methodology described in U.S. Pat. No. 7,186,518, the relevant disclosure of which is incorporated herein by reference. Briefly, both clones were conjugated to β-galactosidase using a standard heterobifunctional SMCC (succinimidyl trans-4-(N-maleimidylmethyl)cyclohexane-1-carboxylate) linker according to known techniques. […] The cross reactivity was detected by testing the samples containing spiked metabolites and other tacrolimus derivatives such as the immunogens. […] Cross-reactivity was determined by dividing the apparent tacrolimus concentration by the concentration of added metabolite and expressing the result as a percentage.

monoclonal antibody 1E2 = experiment: ACMIA cross-reactivity / binding of tacrolimus derivatives to monoclonal antibody 1E2; set-up: species or system mouse; conditions: ACMIA format, 1E2-β-galactosidase conjugate, tacrolimus C32 fluorescein derivative chrome particles
Method: The monoclonal antibody for region 12 may be identified by the following screening method. […] Modification of the hydroxyl group linked to C24 weakened the binding of monoclonal antibody 1E2 to tacrolimus.
Measurements of tacrolimus derivatives by the ACMIA assay format were carried out according to the following procedure. Metabolites were obtained from Isotechnika Pharma Inc (Alberta, Canada) and Dr. Christistians Laboratory at University of Colorado in Denver, Colo. The tacrolimus derivative compounds such as immunogens were obtained from Siemens AG (Glasgow, Del.). The metabolite and immunogen cross-reactivity was measured using the ACMIA methodology described in U.S. Pat. No. 7,186,518, the relevant disclosure of which is incorporated herein by reference. Briefly, both clones were conjugated to β-galactosidase using a standard heterobifunctional SMCC (succinimidyl trans-4-(N-maleimidylmethyl)cyclohexane-1-carboxylate) linker according to known techniques. Chrome particles (immunoassay solid phase) were prepared by conjugating tacrolimus analogs to bovine immunoglobulin and then to polyaldehyde dextran coated chromium dioxide particles. The tacrolimus analog used for monoclonal antibody 14H04 was a tacrolimus C22 oxime compound. The analog used for monoclonal antibody 1E2 was a tacrolimus C32 fluorescein derivative immobilized on anti-fluorescein antibody coated chromium dioxide particles. The cross reactivity was detected by testing the samples containing spiked metabolites and other tacrolimus derivatives such as the immunogens. The assay signals obtained from the samples containing the spiked metabolites were compared to the signals obtained from the samples containing tacrolimus standards. Cross-reactivity was determined by dividing the apparent tacrolimus concentration by the concentration of added metabolite and expressing the result as a percentage.

SMILES	cross-reactivity with monoclonal antibody 14H04 ([1]; spiked metabolite compared with tacrolimus standards)	binding to monoclonal antibody 1E2 (monoclonal antibody 1E2)	binding to monoclonal antibody 14H04 ([1]; 14H04-β-galactosidase conjugate, tacrolimus C22 oxime chrome particles)
C=CCC1C=C(C)CC(C)CC(O)C2OC(O)(C(=O)C(=O)N3CCCCC3C(=O)OC(C(C)=CC3CCC(O)C(OC)C3)C(C)C(O)CC1=O)C(C)CC2OC (stereo not drawn) [15-O-demethyl tacrolimus, 15-O-desmethyl-tacrolimus]	no cross-reactivity	–	–
C=CCC1C=C(C)CC(C)CC(OC)C2OC(O)(C(=O)C(=O)N3CCCCC3C(=O)OC(C(C)=CC3CCC(O)C(O)C3)C(C)C(O)CC1=O)C(C)CC2OC (stereo not drawn) [31-O-desmethyl, 31-O-desmethyl Tacrolimus]	–	does not decrease binding	–
C=CCC1C=C(C)CC(C)CC(OC)C2OC(O)(C(=O)C(=O)N3CCCCC3C(=O)OC(C(C)=CC3CCC(O)C(OC)C3)C(C)C(O)CC1=O)C(C)CC2O (stereo not drawn) [M1, 13-O-desmethyl-tacrolimus]	–	removed the binding	–
C=CCC1C=C(C)CC(C)CC(OC)C2OC(O)(C(=O)C(=O)N3CCCCC3C(=O)OC(C(C)=CC3CCC(O)C(O)C3)C(C)C(O)CC1=O)C(C)CC2O (stereo not drawn) [MVI, 13,31-O-didesmethyl-tacrolimus]	–	removed the binding	–
C=CCC1C=C(C)CC(C)CC(OC)C2OC(O)(C(=O)C(=O)N3CCCCC3C(=O)OC(C(C)=CC3CCC(O)C(OC)C3)C(C)C(O)CC1=NO)C(C)CC2OC (stereo not drawn) [tacrolimus C22 oxime]	–	does not bind	strong binding
